Results as given in patent US10183047B2, “Chromium-containing compositions in combination with Phyllanthus emblica and shilajit having synergistic effects for improving endothelial function and cardiovascular health” (Natreon, Inc., priority 2014, dated 2019).

Experiments:
Assay type in all cases: in vivo, human
malondialdehyde (MDA) = assay: Malondialdehyde level, spectrophotometric, type 2 diabetics; settings: for MDA: DM, 400 mcg; for Mean percentage change in MDA / MDA Post Tt / MDA Pre Tt: type 2 diabetics (Example 3), chromium products 400 mcg; for Mean percentage change in MDA: 12 week treatment; for MDA Post Tt: post-treatment, 12 weeks; for MDA Pre Tt: pre-treatment
Protocol: (§1) The present clinical study is a prospective, randomized, double blind, placebo-controlled study. Patients of either sex, aged 30-65 years, fasting plasma glucose of 110-126 mg/dl, a glycosylated hemoglobin (HbA1c) between 6.5% and 8% and taking stable dose of anti-diabetic treatment (metformin 1500-2000 mg/day) for the past 8 weeks prior to the screening visit; and having endothelial dysfunction defined as ≤6% change in reflection index (RI) on post salbutamol challenge test were included in the study. Patients with severe uncontrolled hyperglyceamia, uncontrolled hypertension, cardiac arrhythmia, impaired hepatic or renal function, history of malignancy or stroke, smoking, chronic alcoholism, any other serious disease requiring active treatment and treatment with any other herbal supplements, were excluded from the study.
(§2) After screening, all the eligible subjects were randomized to receive either one of the three treatments orally for duration of 12 weeks—Group1—one capsule of Crominex®3+, 200 mcg once daily, Group 2—one capsule Crominex®3+, 400 mcg once daily; Group 3—one capsule of placebo once daily.
(§3) Subjects were required for follow up at 4, 8 and 12 weeks of therapy. At each visit they were evaluated for efficacy and safety. Pharmacodynamic evaluation for endothelial function was conducted at every visit. Blood samples were collected for evaluation of biomarkers before and at the end of treatment. Safety lab investigations for hematological, hepatic and renal biochemical parameters were conducted before and at the end of the study and also as and when required (in case of any adverse drug reaction (ADR). Subjects were enquired for the presence of ADR and the same was recorded in the case report form. Compliance to therapy was assessed by pill count method.
(§4) Nitric oxide, MDA, Glutathione and levels were estimated spectrophotometrically as follows. Malondialdehyde (MDA) levels were determined as described in Vidyasagar, et al., “Oxidative stress and antioxidant status in acute organophosphorous insecticide poisoning,” Indian J. Pharmacol. (April 2004) 36(2): 76-79. Glutathione levels were determined as described in G. L. Ellman, Arch. Biochem. Biophys. (1959) 82: 70-77 (original determination). Nitric oxide levels were estimated spectrophotometrically as described in Miranda, et al., “A Rapid, Simple Spectrophotometric Method for Simultaneous Detection of Nitrate and Nitrite,” NITRIC OXIDE: Biology and Chemistry (2001) Vol. 5, No. 1, pp. 62-71. hsCRP (high sensitivity C-reactive protein) was determined by ELISA method.
(§5) When the results with Crominex® 3+ in the above two examples were highly significant, especially with the 400 mcg once daily dose in type 2 diabetics, two more clinical studies (EXAMPLES 3 & 4) were conducted at the same institute, following the same methodology as described earlier, on the individual components of Crominex® 3+, i.e., chromium chloride and Phyllanthus emblica+Shilajit, and other chromium supplements available in the market, i.e., chromium picolinate, chromium polynicotinate and chromium dinicocysteinate, in type 2 diabetics as well as in subjects with metabolic syndrome symptoms.

glutathione (GSH) = assay: Glutathione level, metabolic syndrome subjects; settings: for GSH: MS, 400 mcg; for GSH Post Tt / Mean percentage change in GSH / GSH Pre Tt: metabolic syndrome subjects (Example 4), chromium products 400 mcg; for GSH Post Tt: after 12 weeks of treatment; for Mean percentage change in GSH: after 12 weeks treatment; for GSH Pre Tt: pre-treatment
Protocol: as §4
(§6) Patients included in the study, were of either gender, aged 30-68 years, having endothelial dysfunction defined as ≤6% change in reflection index (RI) on post salbutamol challenge test and central obesity as defined by The International Diabetes Federation guidelines, dated 2006, and any two of the following conditions:
After screening, all the eligible subjects were randomized to receive either one of the three treatments orally for duration of 12 weeks: group 1—one capsule of Crominex®3+ 200 mcg once daily; group 2—one capsule 400 mcg once daily; group 3—one capsule of Placebo once daily.
(§7) Subjects were reviewed for follow up at 4 weeks, 8 and 12 weeks of therapy. At each visit they were evaluated for efficacy and safety. Pharmacodynamic evaluation for endothelial function was conducted at baseline and end of treatment. Blood samples were collected for evaluation of biomarkers before and at end of treatment. Safety lab investigations for hematological, hepatic and renal biochemical parameters were conducted before and at the end of the study and also as and when required (in case of any adverse drug reaction (ADR)). Subjects were enquired for the presence of ADR and the same was recorded in the case report form. Compliance to therapy was assessed by pill count method.
(§8) Assessment of endothelial function, biomarkers, safety parameters and primary and secondary efficacy parameters and data analysis were performed as described under the study with type 2 diabetic subjects in Example 1.
as §5

nitric oxide (NO) = assay: Nitric oxide level, spectrophotometric, type 2 diabetics; settings: for NO: DM, 400 mcg; for Mean percentage change in NO / NO Post Tt / NO Pre Tt: type 2 diabetics (Example 3), chromium products 400 mcg; for Mean percentage change in NO: 12 week treatment; for NO Post Tt: post-treatment, 12 weeks; for NO Pre Tt: pre-treatment
Protocol: as §1, §2, §3, §4, §5

[1] = test system: high sensitivity C-reactive protein (hsCRP); assay: hsCRP by ELISA, metabolic syndrome subjects; set-up: hsCRP Pre Tt / hsCRP Post Tt: unit not given here; settings: for hsCRP: MS, 400 mcg; for Mean percentage change in hsCRP / hsCRP Post Tt / hsCRP Pre Tt: metabolic syndrome subjects (Example 4), chromium products 400 mcg; for Mean percentage change in hsCRP: after 12 weeks treatment; for hsCRP Post Tt: after 12 weeks of treatment; for hsCRP Pre Tt: pre-treatment
Protocol: as §4
as §6, with “conditions: […]” for “conditions:”
as §7, §8, §5

## O.O.O.O.O.O.[Cl][Cr]([Cl])[Cl] [Chromium chloride, Chromium chloride (CrCl3.6H2O)]
Malondialdehyde (MDA)
  MDA: −5.14%
  Mean percentage change in MDA: −5.14 ± 1.92 #NS %
  MDA Post Tt: 3.73 ± 0.39 nmol/mL
  MDA Pre Tt: 3.93 ± 0.39 nmol/mL
Glutathione (GSH)
  GSH: 4.2%
  GSH Post Tt: 542.56 ± 46.51 μM/L
  Mean percentage change in GSH: 4.17 ± 1.80%
  GSH Pre Tt: 521.35 ± 49.06 μM/L
Nitric oxide (NO)
  NO: 6.98%
  Mean percentage change in NO: 6.98 ± 10.15@NS %
  NO Post Tt: 29.60 ± 2.65 μM/L
  NO Pre Tt: 27.74 ± 2.01 μM/L
[1]
  hsCRP: −11%
  Mean percentage change in hsCRP: −10.99 ± 3.29%

## chromium dinicocysteinate
Malondialdehyde (MDA)
  MDA: −6.62%
  Mean percentage change in MDA: −6.62 ± 1.20@NS %
  MDA Post Tt: 3.72 ± 0.30 nmol/mL
  MDA Pre Tt: 3.98 ± 0.31 nmol/mL
Glutathione (GSH)
  GSH: 5.4%
  GSH Post Tt: 558.38 ± 33.94 μM/L
  Mean percentage change in GSH: 5.41 ± 1.38%
  GSH Pre Tt: 529.89 ± 33.97 μM/L
Nitric oxide (NO)
  NO: 7.08%
  Mean percentage change in NO: 7.08 ± 2.40@NS %
  NO Post Tt: 30.91 ± 2.87 μM/L
  NO Pre Tt: 28.88 ± 2.72 μM/L
[1]
  hsCRP: −13.76%
  hsCRP Post Tt: 2.24 ± 0.49
  Mean percentage change in hsCRP: −13.76 ± 4.64%
  hsCRP Pre Tt: 2.58 ± 0.48

## chromium picolinate
Malondialdehyde (MDA)
  MDA: −6.03%
  Mean percentage change in MDA: −6.03 ± 1.65 #NS %
  MDA Post Tt: 3.78 ± 0.34 nmol/mL
  MDA Pre Tt: 4.02 ± 0.33 nmol/mL
Glutathione (GSH)
  GSH: 7.1%
  GSH Post Tt: 550.63 ± 26.21 μM/L
  Mean percentage change in GSH: 7.07 ± 1.95%
  GSH Pre Tt: 514.35 ± 25.09 μM/L
Nitric oxide (NO)
  NO: 11.1%
  Mean percentage change in NO: 11.09 ± 4.73@NS %
  NO Post Tt: 32.96 ± 2.54 μM/L
  NO Pre Tt: 29.75 ± 2.92 μM/L
[1]
  hsCRP: −19.45%
  hsCRP Post Tt: 2.15 ± 0.40
  Mean percentage change in hsCRP: −19.45 ± 2.98%
  hsCRP Pre Tt: 2.67 ± 0.44

## chromium polynicotinate
Malondialdehyde (MDA)
  MDA: −5.56%
  Mean percentage change in MDA: −5.56 ± 1.34 #NS %
  MDA Post Tt: 3.75 ± 0.24 nmol/mL
  MDA Pre Tt: 3.97 ± 0.23 nmol/mL
Glutathione (GSH)
  GSH: 5.1%
  GSH Post Tt: 549.43 ± 20.18 μM/L
  Mean percentage change in GSH: 5.09 ± 1.36%
  GSH Pre Tt: 522.92 ± 20.68 μM/L
Nitric oxide (NO)
  NO: 5.33%
  Mean percentage change in NO: 5.33 ± 2.25 #@NS %
  NO Post Tt: 31.86 ± 2.55 μM/L
  NO Pre Tt: 30.26 ± 2.48 μM/L
[1]
  hsCRP: −12.34%
  hsCRP Post Tt: 2.42 ± 0.54
  Mean percentage change in hsCRP: −12.34 ± 2.16%
  hsCRP Pre Tt: 2.76 ± 0.58
